Reference: patent US12521335B2, “Cosmetic compositions containing vitamin C compounds and uses thereof” (RoC OPCO LLC, priority 2021, dated 2026)

Experiment: DPPH antioxidant assay
Format: biochemical
Conditions: for DPPH antioxidant activity percent, Avg ± SEM: from 0.1% v/v stock
From the text: The purpose of this study was to evaluate the overall antioxidant capacity of the serum formula of Example 1B and gel-cream formula of Example 1C for their ability to reduce the free radical 2,2-Diphenyl-1-picrylhydrazyl ([…] and Singh (2011). Genesis and development of DPPH method of antioxidant assay. (See J. Food Sci Technol. 2011 August; 48(4): 412-422.) Ascorbic Acid (Vitamin C) was used as positive antioxidant control in the assay. The testing involved the suppression of optical density (OD) at 530 nm to a degree, which is proportional to an effective antioxidant activity. Test and control agents were stored at recommended storage temperature until use. An initial 0.1, 1 or 10% v/v dilution was prepared for each test formula in ultra-pure grade water or […]® 355. Serial 2-fold dilutions were prepared for each material and mixed with DPPH in ethanol solution. All samples were compared to diluent-only treated samples used as negative antioxidant activity. Optical density changes at 530 nm were evaluated 10 minutes after addition of DPPH to each sample. Average absorbance was calculated and plotted for each sample concentration. Effective antioxidant inhibition activity based on the change of absorbance of blank (diluent-only) sample (no material added). […] The DPPH antioxidant assay method was performed to measure antioxidant capacity of test materials. The free radical, 2,2-Diphenyl-1-picrylhydrazyl (DPPH) was obtained from Cayman Chemical Co. (Cat. No. 14805) and a 0.2 mM (0.0788 mg/mL) solution was prepared with 200-proof ethanol (Acros Organics, Cat No. 61509-0020). The assay consisted in the evaluation of the overall antioxidant capacity of test materials ([…] and Singh, 2011) for the ability to reduce DPPH (purple color), a stable free radical to DPPHH (Diphenylpicrylhydrazine; light yellow color). The testing involved the suppression of optical density (OD) at 517-530 nm to a degree which is proportional to an effective antioxidant activity. The antioxidant capacity of each material was compared to ascorbic acid (vitamin C) used as standard control. An initial 0.1, 1 or 10% v/v dilution was prepared for each test formula in ultra-pure grade water or […]® 355. Two-fold serial dilutions were made from the stock solution samples. Negative control wells only diluent was added. The vehicle/diluent used was ultra-pure grade water (Cayman Chemical, Co.; Cat No. 400000) or […] Corp.; Lot No. 170310UT14). Diluents were stored at room temperature and handled by the research scientist. To prepare the serum stock formulation (0.1, 1, 10% v/v), 1:10, 1:100 or 1:1000 dilutions were prepared using a positive displacement pipette. To prepare the 20% Ascorbic Acid and 0.05% stock formulation, a 1-dram glass screw-top vial container was pre-weighed and material added to the container followed by addition of neat vehicle to make a 200 mg/mL or […] solution, respectively. Two-fold serial dilutions were made from the stock solution samples. […] Vials were sealed and formulations were immediately used for antioxidant assays.

[1] = DPPH antioxidant activity near 100%

With `O=C1O[C@H]([C@@H](O)CO)C(O)=C1O` [20% Ascorbic Acid, Ascorbic Acid] the “DPPH antioxidant activity percent, Avg ± SEM” value (0.001 % v/v) was 38 ± 8%, the “DPPH antioxidant activity percent, Avg ± SEM” value (0.002 % v/v) was 31 ± 11% and the “DPPH antioxidant activity percent, Avg ± SEM” value (0.003 % v/v) was 50 ± 13%. The “DPPH antioxidant activity percent, Avg ± SEM” value (0.006 % v/v) was 91 ± 4%, the “DPPH antioxidant activity percent, Avg ± SEM” value (0.013 % v/v) was 100 ± 0% and the “DPPH antioxidant activity percent, Avg ± SEM” value (0.025 % v/v) was 100 ± 0%. The “DPPH antioxidant activity percent, Avg ± SEM” value (0.050 % v/v) was 100 ± 0%, the “Maximum effective Antioxidant Activity: Concentration (% v/v)” value [1] was 0.0125 % v/v and the “Maximum effective Antioxidant Activity: Dilution Factor” value [1] was 8,000.
